The test system of data set [1] is lens induced myopia in chick. Nature of the data set: Lens induced myopia. To be noted: for Axial expansion (interocular difference) / Myopia (refractive error, interocular difference): 350 nmol intravitreal daily, −15 D lens, 4.5 days, mean ± SD; for Axial expansion reduction / Myopia reduction: 350 nmol intravitreal, versus water injected control. The format is in vivo.

The target in the next data set is human ρ2 GABAC receptors (Homo sapiens, UniProt P28476). Type of data set: cell-based.
human ρ2 GABAC receptors, sequence (P28476 21-465): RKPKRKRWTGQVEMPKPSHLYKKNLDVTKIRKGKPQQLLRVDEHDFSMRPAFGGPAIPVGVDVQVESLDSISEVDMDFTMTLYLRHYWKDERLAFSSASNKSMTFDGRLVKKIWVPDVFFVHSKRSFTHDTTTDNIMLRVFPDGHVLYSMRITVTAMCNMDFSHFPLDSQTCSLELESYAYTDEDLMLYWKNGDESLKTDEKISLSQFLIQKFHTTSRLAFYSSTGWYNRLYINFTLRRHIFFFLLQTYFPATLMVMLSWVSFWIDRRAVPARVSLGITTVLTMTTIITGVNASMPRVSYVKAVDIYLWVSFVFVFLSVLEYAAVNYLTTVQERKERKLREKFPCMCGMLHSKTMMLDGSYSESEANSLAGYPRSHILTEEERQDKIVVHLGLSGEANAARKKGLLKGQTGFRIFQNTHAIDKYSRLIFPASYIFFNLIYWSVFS
The next data set has as its system male Wistar rats. Nature of the data set: Morris Water Maze learning and memory in rats. The format is in vivo, rat. To be noted: for Behavior in pool, D1 / Behavior in pool, D2: grade 0-8; for Number to reach platform, D1 / Number to reach platform, D2: n=10.
Data set [2] deals with native GABAC receptor on rat retinal bipolar cells. Nature of the data set: Whole-cell patch-clamp on dissociated rat retinal bipolar cells. Type of data set: cell-based. Particulars: GABA 10 μM, bicuculline 100 μM. For orientation: In patch-clamp work, channel activity is measured electrically.
Data set [3] concerns human GABAB(1b,2) receptors. Briefly: Two-electrode voltage clamp on recombinant GABAB. Type of data set: cell-based. Particulars: for Percentage inhibition of GABA response at GABAB(1b,2): compound 1 mM against an EC50 concentration of GABA (3 μM), GIRK1 and GIRK4, n=3; for Response when applied alone (agonist effect) at GABAB(1b,2): compound 1 mM alone. On the technique in general: In two-electrode clamp one electrode senses voltage and the other passes current.

For data set [4], the system named is human α1β2γ2L GABAA receptors. Nature of the data set: Two-electrode voltage clamp on recombinant GABAA. Particulars: for Percentage inhibition of GABA response at GABAA(α1β2γ2L): compound 1 mM against an EC50 concentration of GABA (60 μM), n=3; for Response when applied alone (agonist effect) at GABAA(α1β2γ2L): compound 1 mM alone. The format is cell-based.
For another data set, the target named is human ρ1 GABAC receptors (Homo sapiens, UniProt P24046). The format is cell-based. Particulars: for Mode of antagonism at ρ1 GABAC receptors: GABA dose response curve in presence of 40 μM cis or 30 μM trans; for Effect when applied alone at ρ1 GABAC receptors: applied alone (cis 40 μM, trans 30 μM).
human ρ1 GABAC receptors, sequence (P24046 22-479): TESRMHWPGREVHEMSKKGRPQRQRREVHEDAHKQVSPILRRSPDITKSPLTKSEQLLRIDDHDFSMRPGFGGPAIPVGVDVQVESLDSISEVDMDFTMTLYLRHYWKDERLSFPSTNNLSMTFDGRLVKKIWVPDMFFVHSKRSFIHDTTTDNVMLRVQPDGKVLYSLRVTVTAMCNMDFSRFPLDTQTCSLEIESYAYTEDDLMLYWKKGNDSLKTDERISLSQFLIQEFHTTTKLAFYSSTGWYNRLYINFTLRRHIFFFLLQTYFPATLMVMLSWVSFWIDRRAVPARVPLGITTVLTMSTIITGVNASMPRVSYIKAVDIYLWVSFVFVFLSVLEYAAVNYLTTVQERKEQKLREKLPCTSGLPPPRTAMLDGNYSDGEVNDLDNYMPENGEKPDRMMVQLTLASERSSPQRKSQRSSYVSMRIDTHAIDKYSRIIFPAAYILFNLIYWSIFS
In a further data set the test system is male QS mice. Nature of the data set: General behavioral and acute toxicity tests in mice. The format is in vivo. Particulars: 1, 10 and 100 mg/kg ip; 0 min to 1 week after injection.
The subject of the next data set is ρ1 GABAC receptors. To be noted: ref Chebib et al., 2007, cited from earlier work; for Potency at GABAC relative to GABAA receptors / Potency at GABAC relative to GABAB receptors: ρ1 GABAC.
In data set [5] the test system is lens induced myopia in chick. Particulars: negative lens, ref Schmid et al., 2004; cited from earlier work.
Setting [6] is: 10 mg/kg ip on D1, Trial 1, Day 1.
[7] abbreviates: 10 mg/kg ip on D1, Trial 1, Day 2.
The mark [8] stands for this setting: 30 mg/kg ip on D1, Trial 1, Day 1.
Setting [9] is: 30 mg/kg ip on D1, Trial 1, Day 2.
Where [10] appears, read: 100 mg/kg ip on D1, Trial 1, Day 1.
Where [11] appears, read: 100 mg/kg ip on D1, Trial 1, Day 2.
Setting [12] is: compound 30 μM co-applied with GABA (1 μM).

We go through 7 molecules from PMC2630368 (The Journal of pharmacology and experimental therapeutics, 2008).

As a reminder, the IC50 is the concentration needed to halve the response being measured. The Hill coefficient is a measure of the steepness of the concentration-response curve.

Like-named read-outs stand apart in the source and are kept apart here.

Consider `CCCCP(=O)(O)[C@H]1CC[C@@H](N)C1` (relative stereo) [cis-3-ACPBPA, cis-(3-aminocyclopentanyl)butylphosphinic acid], for which, in data set [1], the “Axial expansion (interocular difference)” value is 0.17±0.17 mm; the “Myopia (refractive error, interocular difference)” value is on record as −2.3±2.6 D; the Axial expansion reduction stood at 70%; the Myopia reduction came to 80%. Besides, the “Dose required to inhibit a similar degree of lens-induced myopia (>80%)” value in [1] (intravitreal, chick) was 35 nmol. The half-maximal inhibitory concentration (IC50) at human ρ2 GABAC receptors (read-out: GABAC ρ2 IC50, GABA 1 μM, n=4) was 11.1 µM. Also, in the data set on male Wistar rats (setting [6]), the “Median time to reach platform, D1” value is recorded as 59 s; the “Behavior in pool, D1” value was 3; the “Number to reach platform, D1” value is 5. Moreover, in the data set on male Wistar rats (setting [7]), the “Median time to reach platform, D2” value amounted to 71 s; the “Behavior in pool, D2” value was determined as 4; the “Number to reach platform, D2” value is given as 8. Further, in the data set with male Wistar rats (setting [8]), the “Median time to reach platform, D1” value was 31 s; the “Behavior in pool, D1” value is listed as 4 ^*, 4; the “Number to reach platform, D1” value is recorded as 7. Also, in the data set with male Wistar rats (setting [9]), the “Median time to reach platform, D2” value is 35 s; the “Behavior in pool, D2” value is 4 ^*, 4; the “Number to reach platform, D2” value was found to be 9. For the same molecule, in the data set with male Wistar rats (setting [10]), the “Median time to reach platform, D1” value worked out at 85 s; the “Behavior in pool, D1” value is given as 3; the “Number to reach platform, D1” value was 5. In the data set with male Wistar rats (setting [11]), the “Median time to reach platform, D2” value turned out to be 71 s; the “Behavior in pool, D2” value stood at 4; the “Number to reach platform, D2” value was found to be 6. Further, in [2], the Hill coefficient is listed as 0.97. Moreover, in data set [2] (read-out: IC50 at native GABAC receptor, n=6), the half-maximal inhibitory concentration (IC50) stood at 47 ± 4.5 µM. Further, in data set [3], the “Percentage inhibition of GABA response at GABAB(1b,2)” value is 27±3% and the “Response when applied alone (agonist effect) at GABAB(1b,2)” value is recorded as “No response”. Moreover, in data set [4], the “Percentage inhibition of GABA response at GABAA(α1β2γ2L)” value is on record as 33±3% and the “Response when applied alone (agonist effect) at GABAA(α1β2γ2L)” value is reported as “no response alone”. Besides, at human ρ1 GABAC receptors, the “Mode of antagonism at ρ1 GABAC receptors” value is reported as “competitive antagonists” and the “Effect when applied alone at ρ1 GABAC receptors” value is reported as “no effect alone”. For the same molecule, the “Potency at GABAC relative to GABAA or GABAB receptors” value on human ρ1 GABAC receptors (GABAC versus GABAA or GABAB) was “over 100 times”. Also, at human ρ1 GABAC receptors (compound 40 μM co-applied with GABA (1 μM)), the “Inhibition of the GABA response at ρ1 GABAC receptors” value (from here on “Inhibition of the GABA response”) was “completely inhibited”. In addition, the IC50 on human ρ1 GABAC receptors (read-out: GABAC ρ1 IC50, GABA 1 μM, n=4) stood at 5.06 µM. Moreover, the “Potency relative to the trans analog at the ρ1 and ρ2 GABAC receptors” value at human ρ1 GABAC receptors (ρ1 and ρ2 GABAC receptors) is “approximately 15 times”. The Overt acute toxicity entry in the data set on male QS mice is given as “No overt acute toxicity”.
Regarding `CP(=O)(O)[C@H]1CC[C@@H](N)C1` (relative stereo) [cis-3-ACPMPA, cis-(3-aminocyclopentanyl)methylphosphinic acid], in the data set with ρ1 GABAC receptors, the “Mode of antagonism at GABAC receptors” value is recorded as “competitive antagonists”, the “Potency at GABAC relative to GABAA receptors” value is “greater than 100 times” and the “Potency at GABAC relative to GABAB receptors” value was 50 times.
Take `CCCCP(=O)(O)CCCN` [CGP36742, (3-aminopropyl)-n-butylphosphinic acid]: the “Dose inhibiting a similar degree of lens-induced myopia” value in data set [5] is 280 nmol.
Turning to `CP(=O)(O)C1=CCNCC1` [TPMPA, (1,2,5,6-tetrahydropyridin-4-yl)methylphosphinic acid, reference compound], the “Dose inhibiting a similar degree of lens-induced myopia” value in data set [5] is 70 nmol. The “Inhibition of the GABA response” value at human ρ1 GABAC receptors (setting [12]) is on record as “completely inhibited”.
For the molecule `CN1[C@@H]2C[C@@H](OC(=O)[C@H](CO)c3ccccc3)C[C@H]1[C@@H]1O[C@@H]12` [scopolamine, reference compound], the “Time taken to find the platform” value in the data set on male Wistar rats (1 mg/kg ip, D1, versus vehicle) was “statistically significant increase”. In the data set on male Wistar rats (1 mg/kg ip, Trials 3 and 4 of D1, vehicle 6), this molecule had a Behavior score of 3.
As for `CCCCP(=O)(O)C1CCC(N)C1` (stereo not drawn) [trans-3-ACPBPA, trans-(3-aminocyclopentanyl)butylphosphinic acid], in data set [1], the “Axial expansion (interocular difference)” value is 0.15±0.15 mm; the “Myopia (refractive error, interocular difference)” value is −3.1±2.8 D; the Axial expansion reduction came out at 74%; the Myopia reduction stood at 74%. The IC50 at human ρ2 GABAC receptors amounted to 190 µM. In the data set with male Wistar rats (setting [6]), the “Median time to reach platform, D1” value worked out at 77 s; the “Behavior in pool, D1” value stood at 3; the “Number to reach platform, D1” value came to 5. In the data set with male Wistar rats (setting [7]), the “Median time to reach platform, D2” value is on record as 44 s; the “Behavior in pool, D2” value is 4; the “Number to reach platform, D2” value was found to be 8. In the data set on male Wistar rats (setting [8]), the “Median time to reach platform, D1” value turned out to be 82 s; the “Behavior in pool, D1” value turned out to be 3; the “Number to reach platform, D1” value is reported as 5. Besides, in the data set on male Wistar rats (setting [9]), the “Median time to reach platform, D2” value came out at 47 s; the “Behavior in pool, D2” value is 5; the “Number to reach platform, D2” value came out at 8. In the data set on male Wistar rats (setting [10]), the “Median time to reach platform, D1” value worked out at 61 s; the “Behavior in pool, D1” value is given as 4; the “Number to reach platform, D1” value was 6. Moreover, in the data set with male Wistar rats (setting [11]), the “Median time to reach platform, D2” value amounted to 28 s; the “Behavior in pool, D2” value stood at 6; the “Number to reach platform, D2” value was 9. Further, in [3], the “Percentage inhibition of GABA response at GABAB(1b,2)” value worked out at 35±5% and the “Response when applied alone (agonist effect) at GABAB(1b,2)” value is “No response”. Besides, in data set [4], the “Percentage inhibition of GABA response at GABAA(α1β2γ2L)” value is reported as 28±5% and the “Response when applied alone (agonist effect) at GABAA(α1β2γ2L)” value is on record as “no response alone”. Also, on human ρ1 GABAC receptors, the IC50 came out at 72.6 µM, the “Mode of antagonism at ρ1 GABAC receptors” value is listed as “competitive antagonists” and the “Effect when applied alone at ρ1 GABAC receptors” value is given as “no effect alone”. In addition, on human ρ1 GABAC receptors (setting [12]), the “Inhibition of the GABA response” value came to 70%. The Overt acute toxicity entry in the data set with male QS mice is reported as “No overt acute toxicity”.
For “trans-(3-aminocyclopentanyl)methylphosphinic acid [trans-3-ACPMPA]”, in the data set with ρ1 GABAC receptors, the “Mode of antagonism at GABAC receptors” value is “competitive antagonists”, the “Potency at GABAC relative to GABAA receptors” value was “greater than 100 times” and the “Potency at GABAC relative to GABAB receptors” value is given as 50 times.
